In ChEMBL document CHEMBL1201862, “PubChem BioAssay data set” (2004):
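Compound exposure: 48 hours, 5 concentrations, 96-well plates. GI50 is the concentration that inhibits growth by half.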 Calls of active or inactive are those of the source. Rule as the data show it: active = GI50 up to about 1.1 µM and inactive = higher.

Experiments:
Assay in all cases: NCI-60 cell line screen, 48 h
RPMI-8226 = tested on: RPMI-8226
HOP-62 = tested on: HOP-62
LOX IMVI = tested on: LOX IMVI
HCT-116 = tested on: HCT-116
HL-60 = tested on: HL-60
SK-MEL-28 = tested on: SK-MEL-28
CAKI-1 = tested on: CAKI-1
HT-29 = tested on: HT-29
OVCAR-3 = tested on: OVCAR-3
SNB-78 = tested on: SNB-78
DLD-1 = tested on: DLD-1
SW-620 = tested on: SW-620
NCI-H226 = tested on: NCI-H226
SF-295 = tested on: SF-295
UO-31 = tested on: UO-31
RXF 393 = tested on: RXF 393
K562 = tested on: K562
KM12 = tested on: KM12
SNB-75 = tested on: SNB-75
SF-268 = tested on: SF-268
SK-MEL-2 = tested on: SK-MEL-2
ACHN = tested on: ACHN
M14 = tested on: M14
EKVX = tested on: EKVX
OVCAR-4 = tested on: OVCAR-4
SK-OV-3 = tested on: SK-OV-3
HCC 2998 = tested on: HCC 2998
Malme-3M = tested on: Malme-3M
UACC-62 = tested on: UACC-62
M19-MEL = tested on: M19-MEL
SK-MEL-5 = tested on: SK-MEL-5
DMS-114 = tested on: DMS-114
UACC-257 = tested on: UACC-257
MOLT-4 = tested on: MOLT-4
HCT-15 = tested on: HCT-15
KM-20L2 = tested on: KM-20L2
SN12C = tested on: SN12C
DMS-273 = tested on: DMS-273
U-251 = tested on: U-251
COLO 205 = tested on: COLO 205
A549 = tested on: A549
SNB-19 = tested on: SNB-19
NCI-H460 = tested on: NCI-H460
HOP-18 = tested on: HOP-18
786-0 = tested on: 786-0
OVCAR-8 = tested on: OVCAR-8
NCI-H522 = tested on: NCI-H522
CCRF-CEM = tested on: CCRF-CEM
LXFL 529 = tested on: LXFL 529
SF-539 = tested on: SF-539
XF498 = tested on: XF498
IGROV-1 = tested on: IGROV-1
A498 = tested on: A498
NCI-H23 = tested on: NCI-H23
TK-10 = tested on: TK-10
SR = tested on: SR
HOP-92 = tested on: HOP-92
OVCAR-5 = tested on: OVCAR-5

Measured: GI50

CC(C)CCC[C@@H](C)C1CCC2[C@@H]3CC=C4C[C@@H](OC(=O)CCC(=O)NCC[N+](C)(C)CCCS(=O)(=O)[O-])CC[C@]4(C)C3CC[C@@]21C (some centres undefined)
15.4 µM: HCT-15
inactive: RPMI-8226 20 µM | HOP-62 17.6 µM | LOX IMVI 17.2 µM | HCT-116 23.1 µM | HL-60 18.8 µM | SK-MEL-28 17.8 µM | CAKI-1 40.7 µM | HT-29 26.7 µM | OVCAR-3 17.9 µM | SNB-78 24.9 µM | DLD-1 21.7 µM | SW-620 17.7 µM | NCI-H226 27.4 µM | SF-295 17 µM | UO-31 41 µM | RXF 393 11.3 µM | K562 18.9 µM | KM12 20.5 µM | SNB-75 21.1 µM | SF-268 19.3 µM | SK-MEL-2 18.8 µM | ACHN 23.9 µM | M14 19.7 µM | EKVX 29.2 µM | OVCAR-4 17.9 µM | SK-OV-3 > 100 µM | HCC 2998 20.6 µM | Malme-3M 22.5 µM | UACC-62 26.3 µM | M19-MEL 18.5 µM | SK-MEL-5 > 10 µM | DMS-114 20.6 µM | UACC-257 23.2 µM | MOLT-4 19.1 µM | KM-20L2 81.3 µM | SN12C 19.5 µM | DMS-273 14.7 µM | U-251 18.3 µM | COLO 205 19.6 µM | A549 17.6 µM | SNB-19 24.3 µM | NCI-H460 15.2 µM | HOP-18 30.5 µM | 786-0 25.8 µM | OVCAR-8 18.6 µM | NCI-H522 26.2 µM | CCRF-CEM 23.5 µM | LXFL 529 27.9 µM | SF-539 16.7 µM

CCOC(=O)/C=C/n1c2ccccc2c(=O)c2ccccc21
inactive: RPMI-8226 > 100 µM | HOP-62 > 100 µM | LOX IMVI > 100 µM | HCT-116 > 100 µM | HL-60 > 100 µM | SK-MEL-28 > 100 µM | XF498 > 100 µM | CAKI-1 > 100 µM | HT-29 > 100 µM | OVCAR-3 > 100 µM | DLD-1 23.1 µM | IGROV-1 > 100 µM | SW-620 > 100 µM | NCI-H226 > 100 µM | SF-295 > 100 µM | A498 > 100 µM | UO-31 > 100 µM | RXF 393 > 100 µM | K562 > 100 µM | KM12 > 100 µM | NCI-H23 > 100 µM | SF-268 > 100 µM | SK-MEL-2 > 100 µM | ACHN > 100 µM | M14 > 100 µM | EKVX > 100 µM | OVCAR-4 > 100 µM | HCC 2998 > 100 µM | Malme-3M > 100 µM | TK-10 > 100 µM | UACC-62 > 100 µM | M19-MEL > 100 µM | DMS-114 > 100 µM | UACC-257 > 100 µM | MOLT-4 > 100 µM | KM-20L2 > 100 µM | SN12C > 100 µM | DMS-273 > 100 µM | U-251 > 100 µM | COLO 205 > 100 µM | A549 > 100 µM | SNB-19 > 100 µM | NCI-H460 > 100 µM | 786-0 > 100 µM | OVCAR-8 > 100 µM | NCI-H522 > 100 µM | CCRF-CEM > 100 µM | LXFL 529 > 100 µM | SR > 100 µM | SF-539 > 100 µM
> 100 µM: HCT-15

CCN(CC)c1c(C(=O)/C=C/c2ccccc2)c(-c2ccccc2)nn(C)c1=O
inactive: HOP-62 > 100 µM | LOX IMVI 3.55 µM | HL-60 4.22 µM | SK-MEL-28 7.14 µM | XF498 11.2 µM | CAKI-1 > 100 µM | HT-29 5.48 µM | DLD-1 3.27 µM | IGROV-1 9.79 µM | NCI-H226 93.1 µM | SF-295 6.01 µM | A498 5.43 µM | UO-31 > 100 µM | RXF 393 3.98 µM | K562 2.52 µM | KM12 4.18 µM | SF-268 5.98 µM | ACHN 8.51 µM | EKVX 8.3 µM | OVCAR-4 4.78 µM | SK-OV-3 > 100 µM | Malme-3M 2.8 µM | TK-10 > 100 µM | UACC-62 5.41 µM | M19-MEL > 100 µM | SK-MEL-5 5.02 µM | DMS-114 5.32 µM | UACC-257 8.17 µM | MOLT-4 1.66 µM | KM-20L2 5.06 µM | SN12C 4.68 µM | DMS-273 4.98 µM | COLO 205 5.81 µM | A549 5.37 µM | SNB-19 29.4 µM | HOP-92 45.1 µM | OVCAR-5 6.53 µM | NCI-H460 3.83 µM | 786-0 7.31 µM | OVCAR-8 5.37 µM | NCI-H522 6 µM | CCRF-CEM 2.2 µM | LXFL 529 5.01 µM | SR 3.21 µM | SF-539 21.3 µM

C=CCCCCn1c2ccccc2c2c(C)c3c[n+](C)ccc3c(C)c21
inactive: CAKI-1 14.3 µM | A498 1.44 µM | UO-31 5.28 µM | ACHN 2.68 µM | SK-OV-3 1.2 µM | TK-10 1.86 µM
active: RPMI-8226 0.212 µM | HOP-62 0.643 µM | LOX IMVI 0.284 µM | HCT-116 0.244 µM | HL-60 0.171 µM | SK-MEL-28 0.426 µM | HT-29 0.271 µM | OVCAR-3 0.288 µM | SNB-78 0.387 µM | DLD-1 0.607 µM | IGROV-1 0.252 µM | SW-620 0.296 µM | NCI-H226 0.212 µM | SF-295 0.208 µM | RXF 393 0.684 µM | K562 0.281 µM | KM12 0.392 µM | SNB-75 0.713 µM | NCI-H23 0.382 µM | SF-268 0.366 µM | SK-MEL-2 0.396 µM | M14 0.979 µM | OVCAR-4 0.284 µM | Malme-3M 0.275 µM | UACC-62 0.336 µM | M19-MEL 0.296 µM | SK-MEL-5 0.329 µM | DMS-114 0.118 µM | UACC-257 0.391 µM | MOLT-4 0.298 µM | KM-20L2 0.352 µM | SN12C 0.234 µM | U-251 0.197 µM | COLO 205 0.25 µM | A549 0.3 µM | SNB-19 0.412 µM | HOP-92 0.237 µM | OVCAR-5 1.07 µM | NCI-H460 0.356 µM | HOP-18 0.0912 µM | 786-0 0.752 µM | OVCAR-8 0.197 µM | NCI-H522 0.176 µM | CCRF-CEM 0.335 µM | LXFL 529 0.176 µM | SR 0.284 µM | SF-539 0.564 µM

O=C(O)/C(Cl)=C(\Cl)C(=O)Nc1ccc(Cl)c(Cl)c1Cl
19.4 µM: HCT-15
inactive: RPMI-8226 28.9 µM | HOP-62 29.5 µM | LOX IMVI 17.4 µM | HCT-116 11.8 µM | HL-60 21.4 µM | SK-MEL-28 27.9 µM | CAKI-1 18.1 µM | HT-29 20.3 µM | OVCAR-3 19 µM | SNB-78 28.4 µM | DLD-1 24.5 µM | IGROV-1 20.7 µM | SW-620 20.5 µM | NCI-H226 17.5 µM | SF-295 18.5 µM | A498 28.8 µM | UO-31 16.3 µM | K562 28 µM | KM12 19.4 µM | SNB-75 18.8 µM | NCI-H23 18.7 µM | SF-268 25 µM | SK-MEL-2 18.2 µM | ACHN 18.1 µM | M14 18.2 µM | EKVX 22.6 µM | OVCAR-4 19.4 µM | SK-OV-3 19.7 µM | HCC 2998 18.9 µM | Malme-3M 19.3 µM | TK-10 16.8 µM | UACC-62 13.3 µM | M19-MEL 16.8 µM | SK-MEL-5 29.4 µM | DMS-114 20.8 µM | UACC-257 18.5 µM | MOLT-4 23.8 µM | KM-20L2 23.2 µM | SN12C 20.9 µM | DMS-273 21 µM | U-251 19.5 µM | COLO 205 20 µM | A549 18.5 µM | SNB-19 15.3 µM | HOP-92 17.2 µM | OVCAR-5 18.2 µM | NCI-H460 21.8 µM | HOP-18 16.3 µM | 786-0 18.2 µM | NCI-H522 10.9 µM | CCRF-CEM 37.2 µM | LXFL 529 20.1 µM | SR 25.1 µM | SF-539 19.1 µM
